Data from ChEMBL document CHEMBL4477234, “Potent Suppressive Effects of 1-Piperidinylimidazole Based Novel P2X7 Receptor Antagonists on Cancer Cell Migration and Invasion” (J Med Chem, 2016).
Values belong to the molecule of their own block, whether it stands above or below them.

Assays:
P2X purinoceptor 7 [1] = molecular target: T1, P2X purinoceptor 7 (Homo sapiens, UniProt Q99572); experiment: Antagonist activity at human P2X7 receptor expressed in HEK293 cells assessed as inhibition of BzATP-induced EtBr uptake measured after 2 hrs by fluorescence analysis; type: cell-based
T1 sequence (Q99572 whole entry): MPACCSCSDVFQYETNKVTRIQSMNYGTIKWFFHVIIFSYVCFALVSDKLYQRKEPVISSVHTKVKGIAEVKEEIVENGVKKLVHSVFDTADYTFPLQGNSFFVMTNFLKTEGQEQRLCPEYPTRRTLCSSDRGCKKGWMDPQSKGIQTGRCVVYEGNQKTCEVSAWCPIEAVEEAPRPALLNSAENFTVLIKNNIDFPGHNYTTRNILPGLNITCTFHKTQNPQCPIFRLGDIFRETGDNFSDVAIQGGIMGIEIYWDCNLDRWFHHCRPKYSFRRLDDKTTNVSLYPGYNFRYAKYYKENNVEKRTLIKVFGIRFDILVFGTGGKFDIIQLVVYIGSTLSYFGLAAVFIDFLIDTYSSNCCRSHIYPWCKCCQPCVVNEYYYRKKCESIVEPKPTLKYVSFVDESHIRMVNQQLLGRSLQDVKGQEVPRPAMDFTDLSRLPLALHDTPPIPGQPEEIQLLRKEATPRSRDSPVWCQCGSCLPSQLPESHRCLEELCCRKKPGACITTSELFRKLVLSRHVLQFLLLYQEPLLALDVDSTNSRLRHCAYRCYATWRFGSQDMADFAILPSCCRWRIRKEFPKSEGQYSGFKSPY

P2X purinoceptor 7 [2] = molecular target: T1, P2X purinoceptor 7; experiment: Antagonist activity at human P2X7 receptor in LPS/IFN-gamma-differentiated human THP-1 cells assessed as suppression of BzATP-stimulated IL-1beta release per-incubated for 30 mins before BzATP addition and measured after 30 mins by ELISA; type: cell-based

Structure (SMILES): CCN(CC)C(=O)c1cccc(S(=O)(=O)Oc2ccc(-c3cncn3C3CCN(C(=O)c4ccc(Cl)c(C(F)(F)F)c4)CC3)cc2)c1
IC50 (P2X purinoceptor 7 [1]): 202 nM

Structure (SMILES): CC(C)c1ccc(C(=O)N2CCC(n3cncc3-c3ccc(OS(=O)(=O)c4cccc5cnccc45)cc3)CC2)cc1
IC50 (P2X purinoceptor 7 [1]): 55 nM
IC50 (P2X purinoceptor 7 [2]): 37 nM

Structure (SMILES): CC(=O)Oc1ccc(-c2cncn2C2CCN(C(=O)c3ccc(Cl)c(C(F)(F)F)c3)CC2)cc1
IC50 (P2X purinoceptor 7 [1]): > 10000 nM

Structure (SMILES): O=C(NC1CC1)c1cccc(S(=O)(=O)Oc2ccc(-c3cncn3C3CCN(C(=O)c4ccc([N+](=O)[O-])cc4)CC3)cc2)c1
IC50 (P2X purinoceptor 7 [1]): 152 nM

Structure (SMILES): O=C(c1ccc(Cl)c(C(F)(F)F)c1)N1CCC(n2ccc3cc(OS(=O)(=O)c4cccc5cnccc45)ccc32)CC1
IC50 (P2X purinoceptor 7 [1]): 430 nM
IC50 (P2X purinoceptor 7 [2]): 552 nM

Structure (SMILES): CNC(=O)c1cccc(S(=O)(=O)Oc2ccc(-c3cncn3C3CCN(C(=O)c4ccc([N+](=O)[O-])cc4)CC3)cc2)c1
IC50 (P2X purinoceptor 7 [1]): 62 nM
IC50 (P2X purinoceptor 7 [2]): 26 nM

Structure (SMILES): O=C(NC1CC1)c1cccc(S(=O)(=O)Oc2ccc(-c3cncn3C3CCN(C(=O)c4ccc(Cl)c(C(F)(F)F)c4)CC3)cc2)c1
IC50 (P2X purinoceptor 7 [1]): 88 nM
IC50 (P2X purinoceptor 7 [2]): 58 nM

Structure (SMILES): O=C(c1ccc(Cl)c(C(F)(F)F)c1)N1CCN(c2cc(=O)[nH]c(=O)n2Cc2ccc(OS(=O)(=O)c3cccc4cnccc34)cc2)CC1
IC50 (P2X purinoceptor 7 [1]): 40 nM
IC50 (P2X purinoceptor 7 [2]): 18 nM

Structure (SMILES): O=C(c1ccc(Cl)c(C(F)(F)F)c1)N1CCC(n2cncc2-c2ccc(OS(=O)(=O)c3cccc([N+](=O)[O-])c3)cc2)CC1
IC50 (P2X purinoceptor 7 [1]): 249 nM

Structure (SMILES): CN(C)c1cccc(C(=O)N2CCC(n3cncc3-c3ccc(OS(=O)(=O)c4cccc5cnccc45)cc3)CC2)c1
IC50 (P2X purinoceptor 7 [1]): 155 nM

Structure (SMILES): N#Cc1ccc(C(=O)N2CCC(n3cncc3-c3ccc(OS(=O)(=O)c4cccc5cnccc45)cc3)CC2)cc1
IC50 (P2X purinoceptor 7 [1]): 269 nM

Structure (SMILES): N#Cc1cccc(S(=O)(=O)Oc2ccc(-c3cncn3C3CCN(C(=O)c4ccc([N+](=O)[O-])cc4)CC3)cc2)c1
IC50 (P2X purinoceptor 7 [1]): 45 nM
IC50 (P2X purinoceptor 7 [2]): 13 nM

Structure (SMILES): CS(=O)(=O)c1ccc(C(=O)N2CCC(n3cncc3-c3ccc(OS(=O)(=O)c4cccc5cnccc45)cc3)CC2)cc1
IC50 (P2X purinoceptor 7 [1]): 25 nM
IC50 (P2X purinoceptor 7 [2]): 0.32 nM

Structure (SMILES): O=C(Oc1ccc(-c2cncn2C2CCN(C(=O)c3ccc(Cl)c(C(F)(F)F)c3)CC2)cc1)c1cccs1
IC50 (P2X purinoceptor 7 [1]): > 10000 nM

Structure (SMILES): COc1ccc(C(=O)N2CCC(n3cncc3-c3ccc(OS(=O)(=O)c4cccc(C#N)c4)cc3)CC2)cc1
IC50 (P2X purinoceptor 7 [1]): 312 nM

Structure (SMILES): O=C(c1ccc(Cl)c(C(F)(F)F)c1)N1CCC(n2cncc2-c2ccc(OS(=O)(=O)c3cccs3)cc2)CC1
IC50 (P2X purinoceptor 7 [1]): 238 nM

Structure (SMILES): CS(=O)(=O)c1ccc(C(=O)N2CCC(n3cncc3-c3ccc(OS(=O)(=O)c4cccc(C(=O)NC5CC5)c4)cc3)CC2)cc1
IC50 (P2X purinoceptor 7 [1]): 400 nM

Structure (SMILES): COc1ccc(C(=O)N2CCC(n3cncc3-c3ccc(OS(=O)(=O)c4cccc(C(=O)NC5CC5)c4)cc3)CC2)cc1
IC50 (P2X purinoceptor 7 [1]): 244 nM

Structure (SMILES): O=C(c1ccc(Cl)c(C(F)(F)F)c1)N1CCC(n2cncc2-c2ccc(OS(=O)(=O)c3cccc(Br)c3)cc2)CC1
IC50 (P2X purinoceptor 7 [1]): 896 nM

Structure (SMILES): O=C(Oc1ccc(-c2cncn2C2CCN(C(=O)c3ccc(Cl)c(C(F)(F)F)c3)CC2)cc1)c1ccccc1
IC50 (P2X purinoceptor 7 [1]): > 10000 nM

Structure (SMILES): CNC(=O)c1cccc(S(=O)(=O)Oc2ccc(-c3cncn3C3CCN(C(=O)c4ccc(Cl)c(C(F)(F)F)c4)CC3)cc2)c1
IC50 (P2X purinoceptor 7 [1]): 112 nM
IC50 (P2X purinoceptor 7 [2]): 1.76 nM

Structure (SMILES): CC(C)(O)c1ccc(C(=O)N2CCC(n3cncc3-c3ccc(OS(=O)(=O)c4cccc5cnccc45)cc3)CC2)cc1
IC50 (P2X purinoceptor 7 [1]): 109 nM
IC50 (P2X purinoceptor 7 [2]): 4.7 nM

Structure (SMILES): COc1ccc(C(=O)N2CCC(n3cncc3-c3ccc(OS(=O)(=O)c4cccc5cnccc45)cc3)CC2)cc1OC
IC50 (P2X purinoceptor 7 [1]): 259 nM

Structure (SMILES): N#Cc1cccc(S(=O)(=O)Oc2ccc(-c3cncn3C3CCN(C(=O)c4ccc(Cl)c(C(F)(F)F)c4)CC3)cc2)c1
IC50 (P2X purinoceptor 7 [1]): 73 nM
IC50 (P2X purinoceptor 7 [2]): 4.28 nM

Structure (SMILES): O=C(c1ccc(Oc2ccccc2)cc1)N1CCC(n2cncc2-c2ccc(OS(=O)(=O)c3cccc4cnccc34)cc2)CC1
IC50 (P2X purinoceptor 7 [1]): 187 nM

Structure (SMILES): CS(=O)(=O)c1ccc(C(=O)N2CCN(c3cc(=O)[nH]c(=O)n3Cc3ccc(OS(=O)(=O)c4cccc5cnccc45)cc3)CC2)cc1
IC50 (P2X purinoceptor 7 [1]): 44 nM
IC50 (P2X purinoceptor 7 [2]): 50 nM

Structure (SMILES): CNC(=O)c1cccc(S(=O)(=O)Oc2ccc(-c3cncn3C3CCN(C(=O)c4ccc(OC)cc4)CC3)cc2)c1
IC50 (P2X purinoceptor 7 [1]): 159 nM

Structure (SMILES): CNC(=O)c1cccc(S(=O)(=O)Oc2ccc(-c3cncn3C3CCN(C(=O)c4ccc(S(C)(=O)=O)cc4)CC3)cc2)c1
IC50 (P2X purinoceptor 7 [1]): 202 nM

Results, then the molecule that gave them:

IC50 (P2X purinoceptor 7 [1]): 1570 nM
Structure (SMILES): CS(=O)(=O)Oc1ccc(-c2cncn2C2CCN(C(=O)c3ccc(Cl)c(C(F)(F)F)c3)CC2)cc1

IC50 (P2X purinoceptor 7 [1]): 143 nM
Structure (SMILES): CS(=O)(=O)c1ccc(C(=O)N2CCC(n3cncc3-c3ccc(OS(=O)(=O)c4cccc(C#N)c4)cc3)CC2)cc1

IC50 (P2X purinoceptor 7 [1]): 31 nM
IC50 (P2X purinoceptor 7 [2]): 210 nM
Structure (SMILES): O=C(c1ccc(Cl)c(C(F)(F)F)c1)N1CCC(c2nc3cc(OS(=O)(=O)c4cccc5cnccc45)ccc3[nH]2)CC1

IC50 (P2X purinoceptor 7 [1]): 565 nM
Structure (SMILES): Nc1cccc(S(=O)(=O)Oc2ccc(-c3cncn3C3CCN(C(=O)c4ccc(Cl)c(C(F)(F)F)c4)CC3)cc2)c1

IC50 (P2X purinoceptor 7 [1]): 32 nM
IC50 (P2X purinoceptor 7 [2]): 10 nM
Structure (SMILES): CN(C)c1ccc(C(=O)N2CCC(n3cncc3-c3ccc(OS(=O)(=O)c4cccc(C#N)c4)cc3)CC2)cc1

IC50 (P2X purinoceptor 7 [1]): 41 nM
IC50 (P2X purinoceptor 7 [2]): 121 nM
Structure (SMILES): CN(C)c1ccc(C(=O)N2CCC(c3nc4cc(OS(=O)(=O)c5cccc6cnccc56)ccc4[nH]3)CC2)cc1

IC50 (P2X purinoceptor 7 [1]): 1440 nM
Structure (SMILES): CCN(CC)c1ccc(C(=O)N2CCC(n3cncc3-c3ccc(OS(=O)(=O)c4cccc5cnccc45)cc3)CC2)cc1

IC50 (P2X purinoceptor 7 [1]): 45 nM
IC50 (P2X purinoceptor 7 [2]): 22 nM
Structure (SMILES): O=C(c1ccc(Cl)c(C(F)(F)F)c1)N1CCC(n2cncc2-c2ccc(OS(=O)(=O)c3cccc4cnccc34)cc2)CC1

IC50 (P2X purinoceptor 7 [1]): 702 nM
Structure (SMILES): O=C(c1ccc(Cl)c(C(F)(F)F)c1)N1CCC(n2cncc2-c2ccc(OS(=O)(=O)c3ccccc3)cc2)CC1

IC50 (P2X purinoceptor 7 [1]): 77 nM
IC50 (P2X purinoceptor 7 [2]): 64 nM
Structure (SMILES): COc1ccc(C(=O)N2CCC(n3cncc3-c3ccc(OS(=O)(=O)c4cccc5cnccc45)cc3)CC2)cc1

IC50 (P2X purinoceptor 7 [1]): 27 nM
IC50 (P2X purinoceptor 7 [2]): 32 nM
Structure (SMILES): O=C(c1ccc([N+](=O)[O-])cc1)N1CCN(c2cc(=O)[nH]c(=O)n2Cc2ccc(OS(=O)(=O)c3cccc4cnccc34)cc2)CC1

IC50 (P2X purinoceptor 7 [1]): 1.49 nM
IC50 (P2X purinoceptor 7 [2]): 8.29 nM
Structure (SMILES): O=C(c1ccc([N+](=O)[O-])cc1)N1CCC(n2cncc2-c2ccc(OS(=O)(=O)c3cccc4cnccc34)cc2)CC1

IC50 (P2X purinoceptor 7 [1]): > 10000 nM
Structure (SMILES): O=C(Oc1ccc(-c2cncn2C2CCN(C(=O)c3ccc(Cl)c(C(F)(F)F)c3)CC2)cc1)c1cccc2cnccc12

IC50 (P2X purinoceptor 7 [1]): 3520 nM
Structure (SMILES): O=C(c1ccc(Cl)c(C(F)(F)F)c1)N1CCC(n2cncc2-c2ccc(OS(=O)(=O)c3cccc4ccccc34)cc2)CC1

IC50 (P2X purinoceptor 7 [1]): 13 nM
IC50 (P2X purinoceptor 7 [2]): 17 nM
Structure (SMILES): O=C(c1ccc([N+](=O)[O-])cc1)N1CCC(c2nc3cc(OS(=O)(=O)c4cccc5cnccc45)ccc3[nH]2)CC1

IC50 (P2X purinoceptor 7 [1]): 25 nM
IC50 (P2X purinoceptor 7 [2]): 22 nM
Structure (SMILES): CNC(=O)c1cccc(S(=O)(=O)Oc2ccc(-c3cncn3C3CCN(C(=O)c4ccc(N(C)C)cc4)CC3)cc2)c1
